Read-outs that look alike come from different tables or passages of the source.
Columns and labels:
[1] = system: pancreatic secretion; experiment: Influence on pancreatic secretion of the narcotized rat; type: in vivo, rat (male Sprague-Dawley); details: 0.5 h
Excerpt: (§1) Male Sprague-Dawley rats (body weight from 250 to 300 g) are narcotized with 1.2 g/kg urethane i.m. Then the abdominal cavity is opened medially, the bile duct is ligatured shortly above the place where it leads into the duodenum and also near to the hepatic duct, and both sections are catheterized towards the liver.
(§2) As in the rat all the pancreatic ducts lead out into the central section of the bile duct; it is possible in this way to discharge the pancreatic secretion separately from the distal (ligatured) section and the bile separately from the proximal section of the bile duct.
(§3) The quantities of pancreatic juice and bile juice obtained are measured at intervals of 30 minutes over a period from 2 hours before to 3 hours after the intraduodenal (V. jugularis externa) administration of the compounds to be tested (quantity of liquid administered 5 ml/kg).
(§4) The body temperature of the animals is maintained at 36° to 38° C. by means of electric blankets and radiation; the temperature is monitored rectally.
(§5) The liquid volumes of the 30-minute fractions after the administration of the substance are related in each case to the quantity of bile or pancreatic juice secreted prior to the application of the substance (=100%, mean of the last two measurements). The maximum percentage increase in the pancreatic or bile secretion is represented in dependence upon dose, and from this the ED50 is determined by interpolation.

[2] = as above; type: in vivo, rat (male Sprague-Dawley); details: in vivo, LD50 mouse i.p. / ED50 rat i.d.
Excerpt: as §1, §2, §3, §4, §5

[3] = Determination of toxicity (lethal action on the mouse after intraperitoneal application); type: in vivo; details: in vivo, ip
Description: The toxicity investigations are carried out on female NMRI mice (body weight 22 to 26 g). The animals (5 animals per dose) are given food and water ad lib. Different doses of the substances are administered intraperitoneally. The duration of observation is 14 days. The LD50, i.e. the dose at which 50% of the animals die, is determined graphically from the dose/effect curve.

[4] = system: liver damage by CCl4; experiment: Antihepatotoxic effect: duration of hexobarbital sleep of the rat after liver damage by CCl4; details: Rattus norvegicus, po; for ED25: read-out: ED25 antihepatotoxic effect (shortens hexobarbital narcosis by 25%)
Description: (§6) The compounds to be tested are administered 1 hour prior to the administration of CCl4 orally in a liquid volume of 10 ml/kg.
(§7) The antihepatotoxic effect of the compounds to be tested (sodium salts in aqueous solution) is determined by the reduction of the prolongation of sleeping period caused by the CCl4 liver cell damage in the groups treated, as compared with the prolongation of the sleeping period of the CCl4 control group (=100%). […]

[5] = as above; details: rat, in vivo
Description: as §6, §7

[6] = system: glucose formation from lactate and pyruvate in isolated perfused liver; experiment: Inhibition of the formation of glucose from lactate and pyruvate in the isolated perfused rat liver; parameters: species or system rat (male Sprague-Dawley); details: Table VIII
Description: For this purpose young male Sprague-Dawley rats (160 to 200 g) are used. The rats are kept in cages of up to 5 animals in a temperature-controlled room (23° C.) with a fixed day/night rhythm (12/12 hours).
Food is withheld from the animals for from 20 to 22 hours prior to the operation. They are allowed to take water ad lib. The operation and the perfusion of the liver are carried out using the technique of R. Scholz et al. [Eur. J. Biochem. 38 (1973) 64 to 72]. The perfusion liquid used is Krebs-Henseleit bicarbonate buffer (pH 7.4), which is saturated with an oxygen/carbon dioxide mixture (95/5) and contains 1.6 mmol/liter of L-lactate and 0.2 mmol/liter of pyruvate. The perfusion liquid is pumped into the liver via a cannula inserted into the portal vein. The effluent perfusion liquid is collected via a cannula inserted into the Vena cava. The liver is perfused for about 2 hours. The test compounds are infused for 16 minutes each from the 32nd to the […] after the perfusion in increasing concentrations (0.02 to 1.00 mmol/liter).
Samples of the effluent perfusion liquid are collected at one-minute intervals and analyzed for glucose, lactate and pyruvate (using standard enzymatic methods). The percentages shown in Table VIII relate to the condition occurring before and after the administration of the compounds, the changes caused solely by lactate and pyruvate being set as being equal to 100%.

[7] = Rattus norvegicus, read-out: ED50 pancreatic secretion (dose which brings about an increase in the pancreatic secretion by a maximum of 50%)
[8] = Table I, read-out: TQ (LD50/ED50), pancreatic secretion
[9] = read-out: ED50 antihepatotoxic effect (dose which shortens the hexobarbital narcosis by 50%)
[10] = TQ (LD50/ED50), antihepatotoxic effect, LD50 mouse i.p. / ED50 rat p.o., Table III
[11] = read-out: ED50 antihepatotoxic effect (shortens hexobarbital narcosis by 50%)
[12] = TQ LD50/ED25, antihepatotoxic effect, LD50 mouse i.p. / ED25 rat p.o., Table V
[13] = narcotized rat, i.d., liquid volume, 30 min fraction, Table VII, read-out: ED50 pancreatic secretion (dose which brings about an increase in pancreatic secretion of a maximum of 50%)
[14] = Table VII, read-out: TQ [LD50/ED50], pancreatic secretion
[15] = narcotized rat, i.d., liquid volume, 30 minute fraction, Table X, read-out: ED50 pancreatic secretion (dose which brings about an increase in pancreatic secretion by a maximum of 50%)
[16] = Table X, read-out: TQ LD50/ED50, pancreatic secretion
[17] = TQ LD50/ED25, antihepatotoxic effect, LD50 mouse i.p. / ED25 rat p.o., Table XI
[18] = TQ LD50/ED50, antihepatotoxic effect, LD50 mouse i.p. / ED50 rat p.o., Table XI

| SMILES | ED50 [1, 7] [mg/kg] | selectivity ratio [2, 8] | LD50 at 336 h ([3]; mouse, Table I) [mg/kg] | ED25 [4] [mg/kg] | ED50 [1, 15] [mg/kg] | selectivity ratio [2, 16] | selectivity ratio [5, 17] | LD50 at 336 h ([3]; mouse i.p., Table X) [mg/kg] | further results |
| --- | --- | --- | --- | --- | --- | --- | --- | --- | --- |
| O=C(O)CCCN(C(=O)c1ccc(Cl)cc1)C12CC3CC(CC(C3)C1)C2 [Serial No. 6, N-(p-chloro)benzoyl-4-(1-adamantyl)aminobutyric acid] | 1 | 200 | 200 | – | – | – | – | – | – |
| CC(C)(C)CC(C)(C)N(CCCC(=O)O)C(=O)c1ccc(Cl)cc1 [Serial No. 7, N-(p-chloro)benzoyl-4-[(1,1,3,3-tetramethylbutyl)amino]butyric acid] | 2 | 110 | 220 | – | – | – | – | – | – |
| C#CC1(N(CCCC(=O)O)C(C)=O)CCCCC1 [Serial No. 8, N-acetyl-4-[(1-ethynylcyclohexyl-1)-amino]butyric acid] | 10 | > 100 | > 1000 | – | – | – | – | – | – |
| O=C(O)CCCN(C(=O)c1ccc(Cl)cc1)C(c1ccccc1)c1ccccc1 [Serial No. 12, N-(p-chloro)benzoyl-4-benzhydrylaminobutyric acid] | ~0.1 | ~2500 | 250 | – | – | – | – | – | ED50 [4, 9]: 10 mg/kg; selectivity ratio [5, 10]: 25 |
| CC(c1ccccc1)N(CCCCCC(=O)O)C(=O)c1ccc(Cl)cc1 (stereo not shown) [Serial No. 13, N-(p-chloro)benzoyl-6-(1-phenylethylamino)caproic acid] | 2 | 110 | 220 | – | – | – | – | – | – |
| O=C(O)CCCN(Cc1ccccc1)C(=O)c1ccc(Cl)cc1 [Serial No. 15, N-(p-chloro)benzoyl-4-benzylaminobutyric acid] | 1.5 | 233 | 350 | – | – | – | – | – | – |
| O=C(O)CCCN(C(=O)c1ccc(Cl)cc1)C1CCCCCCC1 [Serial No. 18, N-(p-chloro)benzoyl-4-cyclooctylaminobutyric acid] | 2.5 | 60 | 150 | – | – | – | – | – | ED50 [4, 9]: 8 mg/kg; selectivity ratio [5, 10]: 18.8 |
| O=C(O)CCCCN(C(=O)c1ccc(Cl)cc1)c1ccccc1-c1ccccc1 [Serial No. 28, 5-[p-chloro-N-(biphenyl-2-yl)benzamido]valeric acid] | – | – | – | 3 | – | – | – | – | ED50 [4, 11]: 12 mg/kg; selectivity ratio [5, 12]: 46.7; selectivity ratio ([5]; TQ LD50/ED50, antihepatotoxic effect, LD50 mouse i.p. / ED50 rat p.o., Table V): 11.7; LD50 at 336 h ([3]; mouse i.p., Table V): 140 mg/kg; Glucose formation, % change ([6]; 0.2 mmole/liter in the perfusate, isolated perfused liver of fasting rats): -89%; ED50 inhibition of formation of glucose from lactate and pyruvate ([6]; from 4 concentrations, 0.02 to 1.00 mmol/liter): 25 µg/mL |
| COc1ccc(Cl)cc1C(=O)N(CCCC(=O)O)c1ccccc1-c1ccccc1 [Serial No. 33, 4-[2-methoxy-5-chloro-N-(biphenyl-2-yl)benzamido]butyric acid] | – | – | – | – | – | – | – | – | ED50 [1, 13]: 2 mg/kg; selectivity ratio [2, 14]: 85; LD50 at 336 h ([3]; mouse i.p., Table VII): 170 mg/kg |
| CC(C)C(=O)N(CCCCCC(=O)O)c1ccccc1-c1ccccc1 [Serial No. 34, 6-[N-(biphenyl-2-yl)isobutyramido]caproic acid] | – | – | – | < 30 | – | – | – | – | selectivity ratio [5, 12]: 8.7; LD50 at 336 h ([3]; mouse i.p., Table V): 260 mg/kg |
| O=C(O)CCCN(C(=O)c1ccc(Cl)cc1)c1ccc(C2CCCCC2)cc1 [Serial No. 37, 4-[p-chloro-N-(1',2',3',4',5',6'-hexahydrobiphenyl-4-yl)benzamido]butyric acid] | – | – | – | ≤ 10 | – | – | – | – | ED50 [1, 13]: 1.5 mg/kg; selectivity ratio [2, 14]: ~100; selectivity ratio [5, 12]: ≥ 15; LD50 at 336 h ([3]; mouse i.p., Table V): ~150 mg/kg |
| CC(=O)N(CCCC(=O)O)c1cccc2ccccc12 [Serial No. 39, 4-[N-(α-naphthyl)acetamido]butyric acid] | – | – | – | < 10 | ~1.5 | ~500 | > 75 | 750 | ED50 [4, 11]: 50 mg/kg; selectivity ratio [5, 18]: 15 |
| O=C(O)CCCN(C(=O)c1ccc(Cl)cc1Cl)c1cccc2ccccc12 [Serial No. 41, 4-{2,4-dichloro-[N-(α-naphthyl)]benzamido}butyric acid] | – | – | – | 10 | 7.5 | 32 | 24 | 240 | ED50 [4, 11]: 26 mg/kg; selectivity ratio [5, 18]: 9.2 |
| COc1ccc(Cl)cc1C(=O)N(CCCC(=O)O)c1cccc2ccccc12 [Serial No. 44, 4-{5-chloro-2-methoxy-[N-(α-naphthyl)]benzamido}butyric acid] | – | – | – | ~30 | < 1 | > 270 | ~9 | 270 | – |
| COc1ccc2cccc(N(CCCC(=O)O)C(=O)c3ccc(Cl)cc3)c2c1 [Serial No. 46, 4-{p-chloro-[N-(7-methoxy-1-naphthyl)]benzamido}butyric acid] | – | – | – | 7 | 0.3 | 400 | 17.1 | 120 | ED50 [4, 11]: 16 mg/kg; selectivity ratio [5, 18]: 7.5 |
| O=C(O)CCCN(C(=O)c1cccc(C(F)(F)F)c1)c1cccc2ccccc12 [compound 42] | – | – | – | – | < 1 | > 160 | – | 160 | – |
| O=C(O)CCCCCN(C(=O)c1ccc(Cl)cc1)c1cccc2ccccc12 [compound 48] | – | – | – | ~7 | ~1 | ~160 | ~22.9 | 160 | – |
| CC(=O)N(CCCC(=O)O)C1CCCc2ccccc21 (stereo not shown) [compound 49] | – | – | – | < 10 | ~5 | ≥ 40 | > 20 | > 200 | – |

Reference: patent US4243678A, “Acylhydrocarbylaminoalkanoic acids, compositions and uses” (Byk Gulden Lomberg Chemische Fabrik GmbH, priority 1977, dated 1981)
